{"source": "patent US12655108B2", "about": "“Heterocyclic compound as TYK2 pseudokinase domain inhibitor, synthetic method, and use” (ZHEJIANG WENDA PHARMA TECHNOLOGY LTD., priority 2021, dated 2026)", "key": {"[1]": {"system": "pSTAT5 in CD3+ cells (IFN-α stimulated)", "experiment": "Inhibition of IFN-α-induced pSTAT5 expression in CD3+ cells of human whole blood, FACS detection", "assay_type": "cell-based", "conditions": "0.25 h, fresh human whole blood, IFN-α 20 ng/ml, 15 minutes", "procedure": "The Inhibitory Effect of Compounds on the expression of pSTAT5 in CD3+ Cells Using FACS Detection • 1. Experimental Materials and instruments: • 1.1. Experimental reagents • DMSO, Sigma, Cat #D2650-100 ml, stored at room temperature. • Perm buffer III, BD Biosciences, Cat #558050, stored at 4° C. • Lyse/Fix buffer, BD Biosciences, Cat #558049, stored at room temperature. • EDTA, Invitrogen, Cat #15575-038, stored at room temperature. • PBS, Hyclone, Cat #SH30256.01, stored at 4° C. • PE Mouse Anti-Human CD3, BD Biosciences, Cat #555333, stored at 4° C. • Mouse anti-human Phospho-STATS (pY694) (Alexa Fluor® 647 Conjugate), BD Biosciences, Cat #562076, stored at 4° C. • IFN-α, Biolegend, Cat #592702 • 1.2 Experimental consumables • Microplate, 96 Well, PP, v-bottom, Greiner, Cat #GN651201-100EA. • 5 ml polystyrene round bottom tube, FALCON, Cat #04318011. • 96 square well storage plate, Thermo, Cat #AB-0661. • 96-well plate, Corning, Cat #3599. • 1.3 Instruments • CO2 cell incubator: MCO-15AC (Thermo) • Pipette: 0.2-10 μL, 20-200 μL, 200-1000 μL (Thermo) • Multichannel pipette: 0.2-10 μL, 5-50 μL, 20-300 μL (Raining) • Centrifuge: Thermo Centrifuge ST 40R; Thermo LEGEND Micro 21R • Water system: Millipore Milli-Q Reference system • Freezer: Haier ultralow temperature freezer • Haier 4 centigrade refrigerator • Haier −20 centigrade freezer • Vortex: EARTH REQUIRED • Plate Shaker: QI LIN BEI ER; MH-2 • Flow Cytometer: BD FACSVerse™ Flow Cytometer • 2 Experimental method: • 2.1 Compound Dilution • 1) On the day of experiment, the compound was prepared into a 10 mM solution with DMSO, diluted to 1.5 mM with DMSO, and then diluted to 8 gradient concentrations with 3-fold dilutions. • 2) 5 μl of diluted compound was transferred into 120 ul of DPBS solution with 0.1% BSA. • 3) Positive and negative control groups were set up, with an addition of 0.5% DMSO to the positive and negative control groups. • 2.2 Experimental procedure • 1) 67.5 ul of fresh human whole blood was added to the 96-well cell culture plate. • 2) 3.5 ul of diluted compound was added and mixed well. • 3) Incubating in a 37° C. incubator for 60 minutes. • 4) IFN-α was diluted in DPBS containing 0.1% BSA to 400 ng/ml, and PE anti-hCD3 antibody was diluted in DPBS containing 0.1% BSA to 5-fold. After the above 60-minute incubation, diluted PE anti-hCD3 antibody was added at 5 ul per well and diluted IFN-α was added at 4 ul per well, i.e., the final concentration of IFN-α per well was 20 ng/ml. • 5) Incubating in a 37° C. incubator for 15 minutes. • 6) All cells were transferred to a 96-well deep well plate and 1 ml of 37° C. preheated lysis/fix buffer was added. • 7) Incubating at 37° C. in dark for 10 minutes. • 8) Centrifuging at 600 g for 5 minutes and then the supernatant was discarded. Washing by adding 1 ml PBS for twice and centrifuging. • 9) 1 ml of Perm buffer III was added to cell precipitation. • 10) Incubating at 37° C. in dark for 30 minutes. • 11) Centrifuging at 600 g for 5 minutes and then the supernatant was discarded. Washing by adding 1 ml PBS for twice and centrifuging. • 12) APC anti-human pSTAT5 antibody was diluted in staining buffer, and then added to cell wells at 100 ul per well and mixed well. • 13) Incubating at room temperature for 40 minutes. • 14) Staining buffer was added and washed twice, 1 ml for each well, centrifuging at 600 g for 5 minutes. • 15) After discarding the supernatant, the cell precipitation was resuspended in 300 ul of staining buffer. • 16) Sample loading and analysing in a flow cytometer."}, "JAK1(JH2)": {"molecular_target": "JAK1(JH2) (Homo sapiens, UniProt P23458)", "sequence (P23458 583-855 limits assumed)": "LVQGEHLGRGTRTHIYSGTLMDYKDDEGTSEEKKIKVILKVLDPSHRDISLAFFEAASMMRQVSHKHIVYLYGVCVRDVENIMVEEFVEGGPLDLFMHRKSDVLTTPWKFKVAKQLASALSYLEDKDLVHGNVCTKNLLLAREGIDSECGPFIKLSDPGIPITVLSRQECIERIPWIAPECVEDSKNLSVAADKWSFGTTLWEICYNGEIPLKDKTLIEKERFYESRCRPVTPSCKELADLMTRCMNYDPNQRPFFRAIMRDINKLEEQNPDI", "experiment": "Pseudokinase (JH2) experiment with Tb/Tracer, JAK1-JH2", "assay_type": "binding", "procedure": "(§1) • 1. Experimental method • 1.1. Pseudokinase (JH2) experiment operation was as follows: • 1.1.1. The compound was dissolved with DMSO to a storage concentration of 10 mM. • 1.1.2. A compound concentration of 200 times the final concentration was prepared in a compound dilution plate, which was diluted from the highest concentration point with a total of 4 concentration points using the 27 times dilution method, and then transferred to the Echo plate. • 1.1.3. The compound was flushed from the Echo plate to the 384 well experimental plate using an Echo instrument, thereby obtaining a total of 11 concentration points of the compound with three-fold dilution matrix. • 1.1.4. 5 ul of TYK2-JH2 or JAK1-JH2 pseudokinase, 3 times the final concentration, was added to the 384-well experimental plate. • 1.1.5. 5 ul of Tb, 3 times the final concentration, was added to the 384-well experimental plate. • 1.1.6. 5 ul of Tracer, 3 times the final concentration, was added to the 384-well experimental plate. • 1.1.7. Centrifuging for 30 seconds and incubating at room temperature for 60 minutes. • 1.1.8. The fluorescence ratio of 520 nm to 495 nm was read using Envision Microplate Reader (PerkinElmer). • 1.2. Kinase (JH1) experiment operation was as follows: • 1.2.1. […] The fluorescence ratio at 665 nm and 615 nm were read using Envision Microplate Reader (PerkinElmer). • 1.3. […]"}, "JAK3(JH1)": {"molecular_target": "T1, JAK3(JH1) (Homo sapiens, UniProt P52333)", "T1 construct": "JAK3-JH1 (the kinase domain of JAK3)", "T1 sequence (P52333 822-1111 limits assumed)": "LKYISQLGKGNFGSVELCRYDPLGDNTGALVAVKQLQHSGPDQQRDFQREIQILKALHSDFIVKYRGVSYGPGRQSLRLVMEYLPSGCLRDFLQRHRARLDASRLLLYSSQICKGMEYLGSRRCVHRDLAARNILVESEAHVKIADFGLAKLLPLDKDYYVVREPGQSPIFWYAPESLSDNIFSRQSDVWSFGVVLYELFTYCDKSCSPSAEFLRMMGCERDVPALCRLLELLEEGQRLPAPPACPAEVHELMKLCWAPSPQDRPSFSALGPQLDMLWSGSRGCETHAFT", "experiment": "Kinase (JH1) experiment, JAK3(JH1)", "assay_type": "biochemical", "procedure": "as §1"}, "JAK1(JH1)": {"molecular_target": "T2, JAK1(JH1) (Homo sapiens, UniProt P23458)", "T2 construct": "JAK1-JH1 (the kinase domain of JAK1)", "T2 sequence (P23458 875-1153 limits assumed)": "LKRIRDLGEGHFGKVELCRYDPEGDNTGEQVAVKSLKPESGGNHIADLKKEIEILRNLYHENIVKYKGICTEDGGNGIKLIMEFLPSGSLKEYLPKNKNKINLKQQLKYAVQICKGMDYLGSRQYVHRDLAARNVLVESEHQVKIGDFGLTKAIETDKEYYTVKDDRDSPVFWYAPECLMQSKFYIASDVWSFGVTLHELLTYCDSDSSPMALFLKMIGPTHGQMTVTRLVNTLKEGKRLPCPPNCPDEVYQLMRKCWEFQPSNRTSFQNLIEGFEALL", "experiment": "Kinase (JH1) experiment, JAK1(JH1)", "assay_type": "biochemical", "procedure": "as §1"}, "TYK2(JH2)": {"molecular_target": "TYK2(JH2) (Homo sapiens, UniProt P29597)", "sequence (P29597 589-875 limits assumed)": "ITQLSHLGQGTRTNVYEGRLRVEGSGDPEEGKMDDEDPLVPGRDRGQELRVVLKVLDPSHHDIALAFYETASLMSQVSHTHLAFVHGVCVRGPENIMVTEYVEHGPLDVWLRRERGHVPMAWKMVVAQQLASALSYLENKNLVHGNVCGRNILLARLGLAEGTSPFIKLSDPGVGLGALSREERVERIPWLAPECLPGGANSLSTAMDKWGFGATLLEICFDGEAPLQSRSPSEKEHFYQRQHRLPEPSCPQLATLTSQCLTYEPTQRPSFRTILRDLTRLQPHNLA", "experiment": "Pseudokinase (JH2) experiment with Tb/Tracer, TYK2-JH2", "assay_type": "binding", "procedure": "as §1"}, "JAK2(JH1)": {"molecular_target": "T3, JAK2(JH1) (Homo sapiens, UniProt O60674)", "T3 construct": "JAK2-JH1 (the kinase domain of JAK2)", "T3 sequence (O60674 849-1124 limits assumed)": "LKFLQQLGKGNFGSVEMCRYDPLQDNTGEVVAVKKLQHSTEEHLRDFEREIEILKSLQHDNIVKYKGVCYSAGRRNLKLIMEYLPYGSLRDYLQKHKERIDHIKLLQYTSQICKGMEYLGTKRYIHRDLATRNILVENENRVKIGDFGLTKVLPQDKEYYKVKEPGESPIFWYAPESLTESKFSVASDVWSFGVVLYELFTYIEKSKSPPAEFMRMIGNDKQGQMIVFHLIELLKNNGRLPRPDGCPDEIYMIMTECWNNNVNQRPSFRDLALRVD", "experiment": "Kinase (JH1) experiment, JAK2(JH1)", "assay_type": "biochemical", "procedure": "as §1"}, "TYK2(JH1)": {"molecular_target": "T4, TYK2(JH1) (Homo sapiens, UniProt P29597)", "T4 construct": "TYK2-JH1 (the kinase domain of TYK2)", "T4 sequence (P29597 897-1176 limits assumed)": "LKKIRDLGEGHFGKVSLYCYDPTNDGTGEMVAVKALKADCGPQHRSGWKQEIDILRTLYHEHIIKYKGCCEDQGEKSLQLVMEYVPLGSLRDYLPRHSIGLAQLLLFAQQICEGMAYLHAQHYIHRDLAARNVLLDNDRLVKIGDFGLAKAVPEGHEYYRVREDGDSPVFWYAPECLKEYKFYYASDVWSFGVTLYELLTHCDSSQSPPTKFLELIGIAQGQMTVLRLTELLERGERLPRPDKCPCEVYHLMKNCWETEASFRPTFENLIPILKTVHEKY", "experiment": "Kinase (JH1) experiment, TYK2(JH1)", "assay_type": "biochemical", "procedure": "as §1"}, "[2]": {"conditions": "selectivity ratio versus TYK2-JH2"}}}
{"smiles": "[2H]C([2H])([2H])NC(=O)c1nnc(NC(=O)C2CC2)cc1Nc1ccccc1S(=O)(=O)C1CC1", "note": "[Compound 1]", "values": [{"measurement": "IC50", "setting": "[1]", "result": 2800, "unit": "nM"}]}
{"smiles": "[2H]C([2H])([2H])NC(=O)c1nnc(NC(=O)C2CC2)cc1Nc1nccnc1S(=O)(=O)C1CC1", "note": "[Compound 2]", "values": [{"measurement": "IC50", "setting": "[1]", "result": 867, "unit": "nM"}]}
{"smiles": "[2H]C([2H])([2H])NC(=O)c1nnc(NC(=O)C2CC2)cc1Nc1ncccc1S(=O)(=O)C1CC1", "note": "[Compound 3]", "values": [{"measurement": "IC50", "setting": "JAK1(JH2); pseudokinase domain", "result": 53.1, "unit": "nM"}, {"measurement": "IC50Other/IC50TYK2-JH2, JAK1(JH2)", "setting": "JAK1(JH2); [2]", "result": 166}, {"measurement": "IC50", "setting": "JAK3(JH1); kinase domain", "result": 2380, "unit": "nM"}, {"measurement": "IC50Other/IC50TYK2-JH2, JAK3(JH1)", "setting": "JAK3(JH1); [2]", "result": 7432}, {"measurement": "IC50", "setting": "JAK1(JH1); kinase domain", "result": 3190, "unit": "nM"}, {"measurement": "IC50Other/IC50TYK2-JH2, JAK1(JH1)", "setting": "JAK1(JH1); [2]", "result": 9955}, {"measurement": "IC50", "setting": "[1]", "result": 64, "unit": "nM"}, {"measurement": "IC50", "setting": "TYK2(JH2); pseudokinase domain", "result": 0.32, "unit": "nM"}, {"measurement": "IC50Other/IC50TYK2-JH2, TYK2(JH2)", "setting": "TYK2(JH2); reference ratio, TYK2-JH2 versus itself", "result": 1}, {"measurement": "IC50", "setting": "JAK2(JH1); kinase domain", "result": 2810, "unit": "nM"}, {"measurement": "IC50Other/IC50TYK2-JH2, JAK2(JH1)", "setting": "JAK2(JH1); [2]", "result": 8790}, {"measurement": "IC50", "setting": "TYK2(JH1); kinase domain", "result": 4310, "unit": "nM"}, {"measurement": "IC50Other/IC50TYK2-JH2, TYK2(JH1)", "setting": "TYK2(JH1); [2]", "result": 13480}]}
{"smiles": "[2H]C([2H])([2H])NC(=O)c1nnc(NC(=O)C2CC23CC3)cc1Nc1ncccc1S(=O)(=O)C1CC1", "note": "(stereo not drawn) [Compound 4]", "values": [{"measurement": "IC50", "setting": "[1]", "result": 168, "unit": "nM"}]}
{"smiles": "[2H]C([2H])([2H])NC(=O)c1nnc(NC(=O)C2CC23CC3)cc1Nc1nccnc1S(=O)(=O)C1CC1", "note": "(stereo not drawn) [Compound 5]", "values": [{"measurement": "IC50", "setting": "[1]", "result": 2110, "unit": "nM"}]}
{"smiles": "[2H]C([2H])([2H])NC(=O)c1cnc(NC(=O)C2CC2)cc1Nc1ncccc1S(=O)(=O)C1CC1", "note": "[Compound 6]", "values": [{"measurement": "IC50", "setting": "[1]", "result": 128, "unit": "nM"}]}
